Reference: patent publication US9221809B2 (MERCK SHARP & DOHME CORP., priority 2011, dated 2015)
Where a name gives a salt, the structure may show the parent alone.

What follows are molecules tested against IRAK4 (Homo sapiens (Human), UniProt Q9NWZ3) (assay: IRAK4 kinase activity, IMAP fluorescence polarization assay). Conditions: 100 μM ATP, 0.5 nM GST tagged IRAK4; read-out: IRAK4 IC50.
Assay type: biochemical
How it was run: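 Fluorescence polarization (IMAP nanoparticle binding of phosphopeptide) reports activity after a 30 min, 25 °C reaction. Conditions: 100 μM ATP, 0.5 nM GST-IRAK4, 100 nM fluorescent peptide, 10 mM Tris pH 7.2, 1 mM MgCl2, 1 mM DTT, 0.01% Tween 20.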

Sequence of IRAK4 (Q9NWZ3 whole entry): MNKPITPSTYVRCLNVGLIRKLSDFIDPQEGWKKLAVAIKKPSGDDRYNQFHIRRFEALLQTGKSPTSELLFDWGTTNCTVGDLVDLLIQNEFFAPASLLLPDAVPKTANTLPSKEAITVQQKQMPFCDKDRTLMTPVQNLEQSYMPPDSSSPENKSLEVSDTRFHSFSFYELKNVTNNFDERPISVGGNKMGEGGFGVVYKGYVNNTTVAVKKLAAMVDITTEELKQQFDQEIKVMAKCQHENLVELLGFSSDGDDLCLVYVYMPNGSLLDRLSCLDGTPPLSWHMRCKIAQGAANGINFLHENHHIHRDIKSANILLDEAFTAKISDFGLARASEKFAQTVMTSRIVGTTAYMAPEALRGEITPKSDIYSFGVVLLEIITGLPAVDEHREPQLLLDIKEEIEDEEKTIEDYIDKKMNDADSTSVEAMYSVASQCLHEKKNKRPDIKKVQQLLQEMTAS

SMILES	IC50
CC(C)[C@H]1C[C@@H](Nc2nc(N3CCOCC3)[nH]c(=O)c2-c2nc3ccccc3s2)[C@H](O)[C@@H]1O [Example 42, 5-(Benzo[d]thiazol-2-yl)-6-((1R,2S,3R,4R)-2,3-dihydroxy-4-isopropylcyclopentylamino)-2-morpholinopyrimidin-4(3H)-one.HCl]	72 nM
O=c1[nH]c(N2CCOCC2)nc(N[C@@H]2CCCNC2)c1-c1nc2cc(C(F)(F)F)ccc2s1 [Example 337, 2-(morpholin-4-yl)-6-[[(3R)-piperidin-3-yl]amino]-5-[5-(trifluoromethyl)-1,3-benzothiazol-2-yl]-3,4-dihydropyrimidin-4-one]	70 nM
O=c1[nH]c(NC2CCC2)nc(N[C@@H]2C[C@H](CO)[C@@H](O)[C@H]2O)c1-c1nc2cnccc2s1 [Example 55, 2-(Cyclobutylamino)-6-((1R,2S,3R,4R)-2,3-dihydroxy-4-(hydroxymethyl)cyclopentylamino)-5-(thiazolo[4,5-c]pyridin-2-yl)pyrimidin-4(3H)-one.HCl]	2.5 nM
Cc1nccc2sc(-c3c(N[C@@H]4C[C@H](CO)[C@@H](O)[C@H]4O)nc(N4CCOCC4)[nH]c3=O)nc12 [Example 56, 6-(((1R,2S,3R,4R)-2,3-Dihydroxy-4-(hydroxymethyl)cyclopentyl)amino)-5-(4-methylthiazolo[4,5-c]pyridin-2-yl)-2-morpholinopyrimidin-4(3H)-one.HCl]	8.4 nM
O=c1[nH]c(NC2CCC2)nc(N[C@@H]2C[C@H](CO)[C@@H](O)[C@H]2O)c1-c1nc2ccccc2s1 [Example 1, 5-(Benzo[d]thiazol-2-yl)-2-(cyclobutylamino)-6-((1R,2S,3R,4R)-2,3-dihydroxy-4-(hydroxymethyl)cyclopentylamino)pyrimidin-4(3H)-one.HCl]	20 nM
O=c1[nH]c(N2CC3(CNC3)C2)nc(N[C@@H]2C[C@H](CO)[C@@H](O)[C@H]2O)c1-c1nc2ccccc2s1 [Example 16, 5-(Benzo[d]thiazol-2-yl)-6-((1R,2S,3R,4R)-2,3-dihydroxy-4-(hydroxymethyl)cyclopentylamino)-2-(2,6-diazaspiro[3.3]heptan-2-yl)pyrimidin-4(3H)-one.HCl]	6.5 nM
Cc1ccc2sc(-c3c(N[C@@H]4CCCNC4)nc(N4CCOCC4)[nH]c3=O)nc2c1 [Example 341, 5-(5-methyl-1,3-benzothiazol-2-yl)-2-(morpholin-4-yl)-6-[[(3R)-piperidin-3-yl]amino]-3,4-dihydropyrimidin-4-one formic acid]	50 nM
O=c1[nH]c(N2CCOCC2)nc(N[C@@H]2CCCNC2)c1-c1nc2cc(F)ccc2s1 [Example 97, (R)-5-(5-Fluorobenzo[d]thiazol-2-yl)-2-morpholino-6-(piperidin-3-ylamino)pyrimidin-4(3H)-one.HCl]	8.4 nM
O=c1[nH]c(N2CCOCC2)nc(N[C@@H]2CCCCNC2)c1-c1nc2ccccc2s1 [Example 104, (R)-6-(azepan-3-ylamino)-5-(benzo[d]thiazol-2-yl)-2-morpholinopyrimidin-4(3H)-one.HCl]	79 nM
O=c1[nH]c(N2CCOCC2)nc(N[C@@H]2CCCNC2)c1-c1nccs1 [Example 101, (R)-2-morpholino-6-(piperidin-3-ylamino)-5-(thiazol-2-yl)pyrimidin-4(3H)-one.HCl]	1830 nM
N[C@@H]1CCCC[C@H]1Nc1cccc2sc(-c3c(N[C@@H]4CCCNC4)nc(N4CCOCC4)[nH]c3=O)nc12 (racemic) [Example 352, 5-(4-[[(trans, rac)-2-aminocyclohexyl]amino]-1,3-benzothiazol-2-yl)-2-(morpholin-4-yl)-6-[[(3R)-piperidin-3-yl]amino]-3,4-dihydropyrimidin-4-one]	5400 nM
O=c1[nH]c(N2CCOCC2)nc(N[C@@H]2C[C@H](CO)[C@@H](O)[C@H]2O)c1-c1nc(-c2ccc(F)cc2)cs1 [Example 58, 6-(((1R,2S,3R,4R)-2,3-Dihydroxy-4-(hydroxymethyl)cyclopentyl)amino)-5-(4-(4-fluorophenyl)thiazol-2-yl)-2-morpholinopyrimidin-4(3H)-one.HCl]	5.6 nM

Same assay, conditions: 100 μM ATP; read-out: IC50

SMILES	IC50
CCC(CO)Nc1nc(N2CCOCC2)[nH]c(=O)c1-c1nc2ccccc2s1 (stereo not drawn) [Example 262, 5-(benzo[d]thiazol-2-yl)-6-(1-hydroxy-butan-2-ylamino)-2-morpholino-pyrimidin-4(3H)-one]	330 nM
O=c1[nH]c(N2CCOCC2)nc(N[C@@H]2CCCNC2)c1-c1csc(-n2ccnc2)n1 [Example 219, (R)-5-(2-(1H-imidazol-1-yl)thiazol-4-yl)-2-morpholino-6-(piperidin-3-ylamino)pyrimidin-4(3H)-one]	4 nM
O=c1[nH]c(N2CCC(CO)CC2)nc(N[C@@H]2CCCNC2)c1-c1nc2ccccc2s1 [Example 305, 5-(1,3-benzothiazol-2-yl)-2-[4-(hydroxymethyl)piperidin-1-yl]-6-[[(3R)-piperidin-3-yl]amino]-3,4-dihydropyrimidin-4-one]	62 nM
O=c1[nH]c(N2CCC2)nc(N[C@@H]2CCCNC2)c1-c1nc2ccccc2s1 [Example 288, (R)-2-(azetidin-1-yl)-5-(benzo[d]thiazol-2-yl)-6-(piperidin-3-ylamino)pyrimidin-4(3H)-one]	2000 nM
CCN1CCCC1CNc1nc(N2CCOCC2)[nH]c(=O)c1-c1ccc2ccccc2n1 (stereo not drawn) [Example 277, 6-((1-ethylpyrrolidin-2-yl)methylamino)-2-morpholino-5-(quinolin-2-yl)pyrimidin-4(3H)-one]	1600 nM
CCN1CCCC1CNc1nc(N2CCOCC2)[nH]c(=O)c1-c1nc2ccccc2s1 (stereo not drawn) [Example 255, 5-(1,3-benzothiazol-2-yl)-6-[[(1-ethylpyrrolidin-2-yl)methyl]amino]-2-(morpholin-4-yl)-3,4-dihydropyrimidin 4-one]	2000 nM
CN(c1nc(N[C@@H]2CCCNC2)c(-c2nc3ccccc3s2)c(=O)[nH]1)[C@H](CO)c1ccccc1 [Example 310, 5-(1,3-benzothiazol-2-yl)-2-[[(1S)-2-hydroxy-1-phenylethyl](methyl)amino]-6-[[(3R)-piperidin-3-yl]amino]-3,4-dihydropyrimidin-4-one; trifluoroacetic acid]	250 nM
O=c1[nH]c(N2CCCC2)nc(N[C@@H]2CCCNC2)c1-c1nc2ccccc2s1 [Example 295]	11 nM
CN(Cc1ccccc1)c1nc(N[C@@H]2CCCNC2)c(-c2nc3ccccc3s2)c(=O)[nH]1 [Example 307, 5-(1,3-benzothiazol-2-yl)-2-[benzyl(methyl)amino]-6-[[(3R)-piperidin-3-yl]amino]-3,4-dihydropyrimidin-4-one dihydrocbloride]	310 nM
N=C(N)CNc1nc(N2CCOCC2)[nH]c(=O)c1-c1nc2ccccc2s1 [Example 250, 2-[[5-(1,3-benzothiazol-2-yl)-2-(morpholin-4-yl)-6-oxo-1,6-dihydropyrimidin-4-yl]amino]ethanimidamide]	300 nM
O=C(NC1CCN(c2nc(N[C@@H]3CCCNC3)c(-c3nc4ccccc4s3)c(=O)[nH]2)CC1)OCc1ccccc1 [Example 323, Benzyl N-[1-[5-(1,3-benzothiazol-2-yl)-6-oxo-4-[[(3R)-piperidin-3-yl]amino]-1,6-dihydropyrimidin-2-yl]piperidin-4-yl]carbamate trifluoroacetic acid]	100 nM
CC1CCCCN1c1nc(N[C@@H]2CCCNC2)c(-c2nc3ccccc3s2)c(=O)[nH]1 (stereo partly drawn) [Example 314]	280 nM

Same assay, conditions: 100 μM ATP; read-out: IRAK4 IC50

SMILES	IC50
Cc1nsc(C2CCN(c3nc(N[C@@H]4CCCNC4)c(-c4ccc5ccccc5n4)c(=O)[nH]3)CC2)n1 [Example 191, (R)-2-(4-(3-methyl-1,2,4-thiadiazol-5-yl)piperidin-1-yl)-6-(piperidin-3-ylamino)-5-(quinolin-2-yl)pyrimidin-4(3H)-one]	138 nM
O=c1[nH]c(N2CCOCC2)nc(N[C@@H]2CCCNC2)c1-c1nc(-c2ccccc2F)cs1 [Example 201]	60 nM
CO[C@H]1CCN(c2nc(N[C@@H]3CCCNC3)c(-c3ccc4ccccc4n3)c(=O)[nH]2)C1 [Example 178, 2-((S)-3-methoxypyrrolidin-1-yl)-6-((R)-piperidin-3-ylamino)-5-(quinolin-2-yl)pyrimidin-4(3H)-one]	35 nM
O=c1[nH]c(N2CCN(c3cnccn3)CC2)nc(N[C@@H]2CCCNC2)c1-c1nc2ccccc2s1 [Example 134, (R)-5-(benzo[d]thiazol-2-yl)-6-(piperidin-3-ylamino)-2-(4-(pyrazin-2-yl)piperazin-1-yl)pyrimidin-4(3H)-one]	8 nM
O=c1[nH]c(N2CC[C@@H](CO)C2)nc(N[C@@H]2CCCNC2)c1-c1ccc2ccccc2n1 [Example 179, 2-((R)-3-(hydroxymethyl)pyrrolidin-1-yl)-6-((R)-piperidin-3-ylamino)-5-(quinolin-2-yl)pyrimidin-4(3H)-one]	13 nM
O=c1[nH]c(N2CCOCC2)nc(N[C@@H]2CCCNC2)c1-c1nc(-c2cc(F)cc(F)c2)cs1 [Example 203]	99 nM
C[C@@H]1COCCN1c1nc(N[C@@H]2CCCNC2)c(-c2nc3ccccc3s2)c(=O)[nH]1 [Example 127]	1690 nM

Same assay, conditions: unit inferred; 100 μM ATP; read-out: IRAK4 IC50

SMILES	IC50
O=c1[nH]c(N2CCC(c3ccncc3)C2)nc(N[C@@H]2C[C@H](CO)[C@@H](O)[C@H]2O)c1-c1nc2ccccc2s1 (stereo partly drawn) [Example 76, 5-(benzo[d]thiazol-2-yl)-6-((1R,2S,3R,4R)-2,3-dihydroxy-4-(hydroxymethyl)cyclopentylamino)-2-(3-(pyridin-4-yl)pyrrolidin-1-yl)pyrimidin-4(3H)-one]	30.9 nM
O=c1[nH]c(N2CCc3cnccc3C2)nc(N[C@@H]2C[C@H](CO)[C@@H](O)[C@H]2O)c1-c1nc2ccccc2s1 [Example 74, 5-(benzo[d]thiazol-2-yl)-2-(3,4-dihydro-2,6-naphthyridin-2(1H)-yl)-6-((1R,2S,3R,4R)-2,3-dihydroxy-4-(hydroxymethyl)cyclopentylamino)pyrimidin-4(3H)-one]	26.4 nM
